Results on three compounds are retold here after patent US6696447B2, “Hydroxyphenyl-piperazinyl-methyl-benzamide derivatives for the treatment of pain” (AstraZeneca AB, priority 2000, dated 2004).

Format in all cases: biochemical
Assay [1] has as its target T1, human δ receptor (HDELTA) (Homo sapiens, UniProt P41143).
T1 construct: expressed in transfected cells; host or cells: human 293S (HEK-293S) cells, geneticin-selected
Put plainly: GTP[γ]35S binding functional assay, HEK-293S membranes expressing cloned human opioid receptor (HDELTA). The procedure: A. Human 293S cells expressing cloned human μ, δ, and κ receptors and neomycin resistance were grown in suspension at 37° C. and 5% CO2 in shaker flasks containing calcium-free DMEM10% FBS, 5% BCS, 0.1% Pluronic F-68, and 600 μg/ml geneticin.
Cells were pelleted and resuspended in lysis buffer (50 mM Tris, pH 7.0, 2.5 mM EDTA, with PMSF added just prior to use to 0.1 mM from a 0.1 M stock in ethanol), incubated on ice for 15 min, then homogenized with a polytron for 30 sec. The suspension was spun at 1000 g (max) for 10 min at 4° C. The supernatant was saved on ice and the pellets resuspended and spun as before. The supernatants from both spins were combined and spun at 46,000 g(max) for 30 min. The pellets were resuspended in cold Tris buffer (50 mM Tris/Ci, pH 7.0) and spun again. The final pellets were resuspended in membrane buffer (50 mM Tris, 0.32 M sucrose, pH 7.0). Aliquots (1 ml) in polypropylene tubes were frozen in dry ice/ethanol and stored at −70° C. until use. The protein concentrations were determined by a modified Lowry assay with sodium dodecyl sulfate.
(§1) The agonist activity of the compounds is measured by determining the degree to which the compounds receptor complex activates the binding of GTP to G-proteins to which the receptors are coupled. In the GTP binding assay, GTP[γ]^35S is combined with test compounds and membranes from HEK-293S cells expressing the cloned human opioid receptors or from homogenised rat and mouse brain. Agonists stimulate GTP[γ]^35 S binding in these membranes. The EC50 and Emax values of compounds are determined from dose-response curves. Right shifts of the dose response curve by the delta antagonist naltrindole are performed to verify that agonist activity is mediated through delta receptors.
A general note: GTPγS is a poorly hydrolysed GTP analogue; its binding reports G protein activation.

The target of assay [2] is T2, delta receptors, rat brain membranes (Rattus norvegicus, UniProt P33533).
T2 construct: from tissue; host or cells: rat brain homogenate
Kind of assay: GTP[γ]35S binding functional assay, homogenised rat brain. The procedure:
(§2) B. Mouse and rat brains were weighed and rinsed in ice-cold PBS (containing 2.5 mM EDTA, pH 7.4). The brains were homogenized with a polytron for 15 sec (mouse) or 30 sec (rat) in ice-cold lysis buffer (50 mM Tris, pH 7.0, 2.5 mM EDTA, with phenylmethylsulfonyl fluoride added just prior use to […] from a 0.5M stock in DMSO:ethanol).
as §1

Assay [3] concerns the target T3, delta receptors, mouse brain membranes (Mus musculus, UniProt P32300).
T3 construct: from tissue; host or cells: mouse brain homogenate
Kind of assay: GTP[γ]35S binding functional assay, homogenised mouse brain. The procedure: as §2, §1

T2 sequence (P33533 whole entry): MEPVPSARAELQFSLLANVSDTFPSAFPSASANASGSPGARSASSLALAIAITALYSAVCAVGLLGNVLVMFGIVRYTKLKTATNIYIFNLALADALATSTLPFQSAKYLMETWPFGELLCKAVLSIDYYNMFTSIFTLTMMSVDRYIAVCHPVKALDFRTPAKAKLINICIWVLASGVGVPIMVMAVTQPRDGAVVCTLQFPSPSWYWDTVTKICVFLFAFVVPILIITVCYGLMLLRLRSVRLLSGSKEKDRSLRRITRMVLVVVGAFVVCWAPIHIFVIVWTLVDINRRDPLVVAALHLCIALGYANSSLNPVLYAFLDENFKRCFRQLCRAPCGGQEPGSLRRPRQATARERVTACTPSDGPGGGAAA
T3 sequence (P32300 whole entry): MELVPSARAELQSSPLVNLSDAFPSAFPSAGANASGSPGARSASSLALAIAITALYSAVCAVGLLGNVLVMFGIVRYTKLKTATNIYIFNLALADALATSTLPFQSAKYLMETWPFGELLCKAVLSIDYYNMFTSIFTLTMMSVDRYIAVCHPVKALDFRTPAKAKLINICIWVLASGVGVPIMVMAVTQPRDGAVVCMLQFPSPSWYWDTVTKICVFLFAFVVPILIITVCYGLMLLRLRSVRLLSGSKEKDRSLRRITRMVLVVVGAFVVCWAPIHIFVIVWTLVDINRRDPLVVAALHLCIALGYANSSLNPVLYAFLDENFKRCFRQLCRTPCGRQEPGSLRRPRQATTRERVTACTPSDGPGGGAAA
T1 sequence (P41143 whole entry): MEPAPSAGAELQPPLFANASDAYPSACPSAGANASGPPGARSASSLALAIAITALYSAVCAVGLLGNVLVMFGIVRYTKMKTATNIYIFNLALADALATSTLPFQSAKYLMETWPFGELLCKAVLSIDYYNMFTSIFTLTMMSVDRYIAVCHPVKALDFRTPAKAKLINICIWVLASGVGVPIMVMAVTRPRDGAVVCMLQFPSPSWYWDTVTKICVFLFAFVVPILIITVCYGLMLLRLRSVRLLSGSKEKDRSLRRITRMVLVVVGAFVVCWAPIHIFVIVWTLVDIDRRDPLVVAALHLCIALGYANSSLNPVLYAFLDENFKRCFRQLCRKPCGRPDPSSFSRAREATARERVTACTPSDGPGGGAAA

For `CCN(CC)C(=O)c1ccc(C(c2cccc(O)c2)N2CCN(Cc3ccsc3)CC2)cc1` (stereo not drawn) [Example 3, N,N-diethyl-4-{(3-hydroxyphenyl)[4-(3-thienylmethyl)-1-piperazinyl]methyl}benzamide], the Emax (usually the maximal effect, on the per cent scale that the assay sets) worked out at 114% in assay [1], 128% in assay [2] and 122% in assay [3].
Turning to `CCN(CC)C(=O)c1ccc(C(c2cccc(O)c2)N2CCN(Cc3cccs3)CC2)cc1` (stereo not drawn) [Example 2, N,N-diethyl-4-{(3-hydroxyphenyl)[4-(2-thienylmethyl)-1-piperazinyl]methyl}benzamide], the Emax amounted to 105% in assay [1], 120% in assay [2] and 118% in assay [3].
The like results for `CCN(CC)C(=O)c1ccc(C(c2cccc(O)c2)N2CCN(Cc3ccco3)CC2)cc1` (stereo not drawn) [Example 1, N,N-diethyl-4-[[4-(2-furylmethyl)-1-piperazinyl](3-hydroxyphenyl)methyl]benzamide] were, in that order, 94.8%, 130% and 113%.
